Test system: DENV-1/45AZ5
Assay: NHP DENV-1 study, serum viral RNA RT-qPCR
Type: in vivo, rhesus macaques
Experimental: WRAIR is fully accredited by AAALAC International.
Serum samples from macaques were checked for the presence of DENV-1 RNA. Viral RNA for RT–qPCR was extracted from 100–200 µl of serum using the QIAcube instrumentation and the QIAGEN Viral RNA extraction kits. The primers and fluorogenic probes used in the RT–qPCR assays have been previously described[63],[64]. DENV-1 RNA was detected in a 25 µl reaction containing 5 µl of extracted RNA sample, 10 pmol of dengue-specific primers and 5 pmol dengue probe in the reaction mixture from Superscript Ill Platinum One-Step Quantitative RT-PCR Kit (Invitrogen, Thermo Fisher Scientific), consisting of 0.5 µl Superscript III RT/Platinum mix, 12.5 µl 2× reaction mix and 0.05 µl ROX reference dye. The one-step RT–qPCR comprises a 30 min RT step at 50 °C and 2 min of Taq polymerase activation at 94 °C, followed by 40 cycles of PCR at 94 °C for 5 s and 53 °C for 35 s performed in an ABI 7500DX Fast Real Time PCR system. Each assay included positive, negative and non-template controls. The RNA copy number was calculated from a standard curve of tenfold serial dilutions made from RNA in vitro transcripts consisting of DENV-1 with known copy numbers. The LLOQ was 100 genomic copies per reaction.
This sample size was sufficient to detect a significant difference in the number of infected animals in each of the groups as low as 83%. […] Sample processing and conducting of assays was performed by laboratory technicians not involved in the treatment/manipulation of the animals.

Compound: COc1cc(N[C@H](C(=O)c2c[nH]c3ccc(OC(F)(F)F)cc23)c2ccc(Cl)cc2OC)cc(S(C)(=O)=O)c1 [JNJ-1802]
- qRT-PCR Assay Average GE/mL (animal R9, Day 29, LOQ 100 GE/reaction): 0.00E+00 GE/mL
- qRT-PCR Assay Result (animal R10, Day 0): Negative
- qRT-PCR Assay Average GE/mL (animal R10, Day 0, Assay LOQ = 100 GE/reaction): 0.00E+00 GE/mL
- qRT-PCR Assay Result (animal R10, Day 1): Negative
- qRT-PCR Assay Average GE/mL (animal R10, Day 1, Assay LOQ = 100 GE/reaction): 0.00E+00 GE/mL
- qRT-PCR Assay Result (animal R10, Day 2): Negative
- qRT-PCR Assay Average GE/mL (animal R10, Day 2, Assay LOQ = 100 GE/reaction): 0.00E+00 GE/mL
- qRT-PCR Assay Result (animal R10, Day 3): Negative
- qRT-PCR Assay Average GE/mL (animal R10, Day 3, Assay LOQ = 100 GE/reaction): 0.00E+00 GE/mL
- qRT-PCR Assay Result (animal R10, Day 4): Negative
- qRT-PCR Assay Average GE/mL (animal R10, Day 4, Assay LOQ = 100 GE/reaction): 0.00E+00 GE/mL
- qRT-PCR Assay Result (animal R10, Day 5): Negative
- qRT-PCR Assay Average GE/mL (animal R10, Day 5, Assay LOQ = 100 GE/reaction): 0.00E+00 GE/mL
- qRT-PCR Assay Result (animal R10, Day 6): Negative
- qRT-PCR Assay Average GE/mL (animal R10, Day 6, Assay LOQ = 100 GE/reaction): 0.00E+00 GE/mL
- qRT-PCR Assay Result (animal R10, Day 7): Negative
- qRT-PCR Assay Average GE/mL (animal R10, Day 7, Assay LOQ = 100 GE/reaction): 0.00E+00 GE/mL
- qRT-PCR Assay Result (animal R10, Day 8): Negative
- qRT-PCR Assay Average GE/mL (animal R10, Day 8, Assay LOQ = 100 GE/reaction): 0.00E+00 GE/mL
- qRT-PCR Assay Result (animal R10, Day 9): Negative
- qRT-PCR Assay Average GE/mL (animal R10, Day 9, Assay LOQ = 100 GE/reaction): 0.00E+00 GE/mL
- qRT-PCR Assay Result (animal R10, Day 10): Negative
- qRT-PCR Assay Average GE/mL (animal R10, Day 10, Assay LOQ = 100 GE/reaction): 0.00E+00 GE/mL
- qRT-PCR Assay Result (animal R10, Day 11): Negative
- qRT-PCR Assay Average GE/mL (animal R10, Day 11, Assay LOQ = 100 GE/reaction): 0.00E+00 GE/mL
- qRT-PCR Assay Result (animal R10, Day 14): Negative
- qRT-PCR Assay Average GE/mL (animal R10, Day 14, Assay LOQ = 100 GE/reaction): 0.00E+00 GE/mL
- qRT-PCR Assay Result (animal R10, Day 29): Negative
- qRT-PCR Assay Average GE/mL (animal R10, Day 29, Assay LOQ = 100 GE/reaction): 0.00E+00 GE/mL
- qRT-PCR Assay Result (animal R11, Day 0): Negative
- qRT-PCR Assay Average GE/mL (animal R11, Day 0, Assay LOQ = 100 GE/reaction): 0.00E+00 GE/mL
- qRT-PCR Assay Result (animal R11, Day 1): Negative
- qRT-PCR Assay Average GE/mL (animal R11, Day 1, Assay LOQ = 100 GE/reaction): 0.00E+00 GE/mL
- qRT-PCR Assay Result (animal R11, Day 2): Negative
- qRT-PCR Assay Average GE/mL (animal R11, Day 2, Assay LOQ = 100 GE/reaction): 0.00E+00 GE/mL
- qRT-PCR Assay Result (animal R11, Day 3): Negative
- qRT-PCR Assay Average GE/mL (animal R11, Day 3, Assay LOQ = 100 GE/reaction): 0.00E+00 GE/mL
- qRT-PCR Assay Result (animal R11, Day 4): Negative
- qRT-PCR Assay Average GE/mL (animal R11, Day 4, Assay LOQ = 100 GE/reaction): 0.00E+00 GE/mL
- qRT-PCR Assay Result (animal R11, Day 5): Negative
- qRT-PCR Assay Average GE/mL (animal R11, Day 5, Assay LOQ = 100 GE/reaction): 0.00E+00 GE/mL
- qRT-PCR Assay Result (animal R11, Day 6): Negative
- qRT-PCR Assay Average GE/mL (animal R11, Day 6, Assay LOQ = 100 GE/reaction): 0.00E+00 GE/mL
- qRT-PCR Assay Result (animal R11, Day 7): Negative
- qRT-PCR Assay Average GE/mL (animal R11, Day 7, Assay LOQ = 100 GE/reaction): 0.00E+00 GE/mL
- qRT-PCR Assay Result (animal R11, Day 8): Negative
- qRT-PCR Assay Average GE/mL (animal R11, Day 8, Assay LOQ = 100 GE/reaction): 0.00E+00 GE/mL
- qRT-PCR Assay Result (animal R11, Day 9): Negative
- qRT-PCR Assay Average GE/mL (animal R11, Day 9, Assay LOQ = 100 GE/reaction): 0.00E+00 GE/mL
- qRT-PCR Assay Result (animal R11, Day 10): Negative
- qRT-PCR Assay Average GE/mL (animal R11, Day 10, Assay LOQ = 100 GE/reaction): 0.00E+00 GE/mL
- qRT-PCR Assay Result (animal R11, Day 11): Negative
- qRT-PCR Assay Average GE/mL (animal R11, Day 11, Assay LOQ = 100 GE/reaction): 0.00E+00 GE/mL
- qRT-PCR Assay Result (animal R11, Day 14): Negative
- qRT-PCR Assay Average GE/mL (animal R11, Day 14, Assay LOQ = 100 GE/reaction): 0.00E+00 GE/mL
- qRT-PCR Assay Result (animal R11, Day 29): Negative
- qRT-PCR Assay Average GE/mL (animal R11, Day 29, Assay LOQ = 100 GE/reaction): 0.00E+00 GE/mL
- qRT-PCR Assay Result (animal R12, Day 0): Negative
- qRT-PCR Assay Average GE/mL (animal R12, Day 0, Assay LOQ = 100 GE/reaction): 0.00E+00 GE/mL
- qRT-PCR Assay Result (animal R12, Day 1): Negative
- qRT-PCR Assay Average GE/mL (animal R12, Day 1, Assay LOQ = 100 GE/reaction): 0.00E+00 GE/mL
- qRT-PCR Assay Result (animal R12, Day 2): Negative
- qRT-PCR Assay Average GE/mL (animal R12, Day 2, Assay LOQ = 100 GE/reaction): 0.00E+00 GE/mL
- qRT-PCR Assay Result (animal R12, Day 3): Negative
- qRT-PCR Assay Average GE/mL (animal R12, Day 3, Assay LOQ = 100 GE/reaction): 0.00E+00 GE/mL
- qRT-PCR Assay Result (animal R12, Day 4): Negative
- qRT-PCR Assay Average GE/mL (animal R12, Day 4, Assay LOQ = 100 GE/reaction): 0.00E+00 GE/mL
- qRT-PCR Assay Result (animal R12, Day 5): Negative
- qRT-PCR Assay Average GE/mL (animal R12, Day 5, Assay LOQ = 100 GE/reaction): 0.00E+00 GE/mL
- qRT-PCR Assay Result (animal R12, Day 6): Negative
- qRT-PCR Assay Average GE/mL (animal R12, Day 6, Assay LOQ = 100 GE/reaction): 0.00E+00 GE/mL
- qRT-PCR Assay Result (animal R12, Day 7): Negative
- qRT-PCR Assay Average GE/mL (animal R12, Day 7, Assay LOQ = 100 GE/reaction): 0.00E+00 GE/mL
- qRT-PCR Assay Result (animal R12, Day 8): Negative
- qRT-PCR Assay Average GE/mL (animal R12, Day 8, Assay LOQ = 100 GE/reaction): 0.00E+00 GE/mL
- qRT-PCR Assay Result (animal R12, Day 9): Negative
- qRT-PCR Assay Average GE/mL (animal R12, Day 9, Assay LOQ = 100 GE/reaction): 0.00E+00 GE/mL
- qRT-PCR Assay Result (animal R12, Day 10): Negative
- qRT-PCR Assay Average GE/mL (animal R12, Day 10, Assay LOQ = 100 GE/reaction): 0.00E+00 GE/mL
- qRT-PCR Assay Result (animal R12, Day 11): Negative
- qRT-PCR Assay Average GE/mL (animal R12, Day 11, Assay LOQ = 100 GE/reaction): 0.00E+00 GE/mL
- qRT-PCR Assay Result (animal R12, Day 14): Negative
- qRT-PCR Assay Average GE/mL (animal R12, Day 14, Assay LOQ = 100 GE/reaction): 0.00E+00 GE/mL
- qRT-PCR Assay Result (animal R12, Day 29): Negative
- qRT-PCR Assay Average GE/mL (animal R12, Day 29, Assay LOQ = 100 GE/reaction): 0.00E+00 GE/mL
